The text below walks through data of patent publication US10449162B2, “Delivery of drug nanoparticles and methods of use thereof” (DFB Soria, LLC, priority 2015, dated 2019).

Where two headings read alike, the source gives them in different places.

Series [1] can be described thus: Observation of paclitaxel nanoparticle crystals in various substances and solutions (light microscopy). It counts as physicochemical.
The conditions of series [2]: methanol/water 15/85 (v/v), 37° C., pH 7, USP Apparatus II 75 rpm, PCT/US16/35993, cited from earlier work.
Series [3] can be described thus: Particle size of paclitaxel nanoparticles lots (ACCUSIZER 780). The following applies: number-weighted differential distribution; nanoparticle API lot. It counts as physicochemical. As for the experimental part: Max. Concentration: 9000 particles/mL, No. containers: 1, Sensor Range: Summation, Lower Detection Limit: 0.5 μm, Flow Rate: 30 mL/min, No. Analysis pulls: 4, Time between pulls: 1 sec, Pull volume: 10 mL, Tare Volume: 1 mL, Prime volume: 1 mL, Include First Pull: Not Selected.
Vortexed for 5-10 minutes and sonicated in a water batch for 1 minute.
Filled a plastic bottle with filtered (0.22 μm) 0.1% w/w SDS solution and analyzed the Background.

Series [4] in a line: Bulk density (not tapped). The following applies: lots used in the formulas. It counts as physicochemical. On the procedure:
(§1) As used herein, the “specific surface area (SSA)” is the total surface area of the taxane nanoparticle per unit of taxane mass as measured by the Brunauer-Emmett-Teller (“BET”) isotherm by the following method: a known mass between 200 and 300 mg of the analyte is added to a 30 mL sample tube. […] The automated test is then carried out using the BETWIN® software package and the surface area of each sample is subsequently calculated. The bulk density measurement can be conducted by pouring the taxane nanoparticles into a graduated cylinder without tapping at room temperature, measuring the mass and volume, and calculating the bulk density.

Series [5] can be described thus: Specific surface area (BET isotherm). Type of series: physicochemical. The following applies: lots used in the formulas. On the procedure:
as §1

[6] abbreviates: in Aluminum sulfate 0.1-0.2% in water, 7 days, RT.
Where [7] appears, read: in Ammonium lauryl sulfate 2% in water, 3 days, RT.
The mark [8] stands for this setting: in Benzalkonium chloride (50%) 2% in water, 7 days & 21 days, RT.
Setting [9] is: in CARBOPOL ULTREZ 10 (with Ammonium hydroxide as neutralizer) 0.5% in water, 8 days & 21 days, RT.
Where [10] appears, read: in Castor Oil 100%, 24 hrs & 9 days, RT.
The mark [11] stands for this setting: in Dimethicone, 1000 cSt 100%, 24 hrs & 6 days, RT.
Setting [12] is: in FOMBLIN HC04 100%, 4, 7 & 13 days, RT.
[13] abbreviates: in Hydroxyethyl cellulose 1% in water, 7 days, RT.
Setting [14] is: in Hydroxypropyl methylcellulose 1% in water, 3 days, RT.
The mark [15] stands for this setting: in Lecithin 1% in water, 24 hrs, RT.
Where [16] appears, read: in Light Mineral Oil NF 100%, 3 days, RT & 40 C.
Where [17] appears, read: in Magnesium nitrate 5% in water, 3 days, RT.
Where [18] appears, read: in Mannitol 5% in water, 7 days, RT.
[19] abbreviates: in Mineral Oil USP (heavy) 100%, 3 days, RT & 40 C.
The mark [20] stands for this setting: in PEG 400 10% in water, 22 days, RT & 60 C.
The mark [21] stands for this setting: in Poloxamer 188 2% in water, 7 days, RT.
Setting [22] is: in Poloxamer 407 2% in water, 5 & 7 days, RT.
[23] abbreviates: in Polyoxyl 40 Hydrogenated Castor Oil (KOLLIPHOR RH40) 1% in water, 6 days, RT.
Where [24] appears, read: in Polysorbate 80 0.5% in Saline, 7 days, RT & 60 C.
Setting [25] is: in Polysorbate 80 0.5% in water, 22 days, RT & 60 C.
Where [26] appears, read: in Povidone 1% in water, 7 days & 21 days, RT.
The mark [27] stands for this setting: in Proline 3% in water, 7 days, RT.
Setting [28] is: in Purified Water 100%, 5 days, RT & 60 C.
[29] abbreviates: in ST-Cyclomethicone 5 NF 100%, 24 hrs & 13 days, RT.
Where [30] appears, read: in Saline 0.9% NaCl in water, 7 days, RT & 60 C.
Where [31] appears, read: in Sodium lauryl sulfate 2% in water, 7 days, RT.
Setting [32] is: in Sodium phosphate monobasic 0.75% in water, 7 days, RT.
Where [33] appears, read: in Sorbitol 5% in water, 7 days, RT.
The mark [34] stands for this setting: in Vitamin E TPGS 0.5% in water, 6 days, RT.
The mark [35] stands for this setting: in Zinc acetate […] in water, 7 days, RT.

On to `CC(=O)O[C@H]1C(=O)[C@@]2(C)[C@H]([C@H](OC(=O)c3ccccc3)[C@]3(O)C[C@H](OC(=O)[C@H](O)[C@@H](NC(=O)c4ccccc4)c4ccccc4)C(C)=C1C3(C)C)[C@]1(OC(C)=O)CO[C@@H]1C[C@@H]2O` [Paclitaxel nanoparticles, paclitaxel], for which the “Crystal size (light microscopy)” value in series [1] (setting [6]) is on record as > 5 μm; in series [1] (setting [7]), > 5 μm; in series [1] (setting [8]), < 5 μm; in series [1] (setting [9]), < 5 μm; in series [1] (setting [10]), < 5 μm; in series [1] (setting [11]), < 5 μm. Moreover, the “Crystal size (light microscopy)” value in series [1] (setting [12]) is < 5 μm; in series [1] (setting [13]) it was > 5 μm; in series [1] (setting [14]), > 5 μm; in series [1] (setting [15]), > 10 μm; in series [1] (setting [16]) it was < 5 μm; in series [1] (setting [17]), > 5 μm. Moreover, the “Crystal size (light microscopy)” value in series [1] (setting [18]) is > 5 μm; in series [1] (setting [19]), < 5 μm; in series [1] (setting [20]), > 5 μm; in series [1] (setting [21]) it was > 5 μm; in series [1] (setting [22]) it was < 5 μm; in series [1] (setting [23]), < 5 μm. Further, the “Crystal size (light microscopy)” value is > 5 μm in series [1] (setting [24]); < 5 μm in series [1] (setting [25]); < 5 μm in series [1] (setting [26]); > 5 μm in series [1] (setting [27]); > 5 μm in series [1] (setting [28]); < 5 μm in series [1] (setting [29]). For the same compound, the “Crystal size (light microscopy)” value in series [1] (setting [30]) is recorded as > 10 μm; in series [1] (setting [31]), > 5 μm; in series [1] (setting [32]) it was > 5 μm; in series [1] (setting [33]), > 5 μm; in series [1] (setting [34]), < 5 μm; in series [1] (setting [35]), > 5 μm. The “Needle shaped crystals observed? (visual observation by light microscopy)” value (from here on “Needle shaped crystals observed?”) in series [1] (setting [6]) is recorded as “Yes”; in series [1] (setting [7]) it was “Yes”; in series [1] (setting [8]), “No”; in series [1] (setting [9]), “No”; in series [1] (setting [10]), “No”; in series [1] (setting [11]) it was “No”. In addition, the “Needle shaped crystals observed?” value is “No” in series [1] (setting [12]); “Yes” in series [1] (setting [13]); “Yes” in series [1] (setting [14]); “Yes” in series [1] (setting [15]); “No” in series [1] (setting [16]); “Yes” in series [1] (setting [17]). The “Needle shaped crystals observed?” value in series [1] (setting [18]) is recorded as “Yes”; in series [1] (setting [19]) it was “No”; in series [1] (setting [20]), “Yes”; in series [1] (setting [21]), “Yes”; in series [1] (setting [22]), “No”; in series [1] (setting [23]), “Yes”. In addition, the “Needle shaped crystals observed?” value in series [1] (setting [24]) was “Yes”; in series [1] (setting [25]), “Yes”; in series [1] (setting [26]) it was “Yes”; in series [1] (setting [27]) it was “Yes”; in series [1] (setting [28]) it was “Yes”; in series [1] (setting [29]) it was “No”. The “Needle shaped crystals observed?” value in series [1] (setting [30]), in series [1] (setting [31]), in series [1] (setting [32]), in series [1] (setting [33]), in series [1] (setting [34]) and in series [1] (setting [35]) was “Yes” in each case. The Crystal growth entry in series [1] (in any of the hydrophobic carriers) is on record as “did not grow”; in series [1] (in aqueous solutions of benzalkonium chloride, CARBOPOL ULTREZ 10, or poloxamer 407), “did not grow”.

Take `CC(=O)O[C@@]12CO[C@@H]1C[C@H](O)[C@@]1(C)C(=O)[C@H](O)C3=C(C)[C@@H](OC(=O)[C@H](O)[C@@H](NC(=O)OC(C)(C)C)c4ccccc4)C[C@@](O)([C@@H](OC(=O)c4ccccc4)[C@H]21)C3(C)C` [docetaxel nanoparticles, docetaxel]: in series [2], the “Dissolution rate, % dissolved in 30 minutes” value is 27%.

For the compound `CC(=O)O[C@H]1C(=O)[C@@]2(C)[C@H]([C@H](OC(=O)c3ccccc3)[C@]3(O)C[C@H](OC(=O)[C@H](O)[C@@H](NC(=O)c4ccccc4)c4ccccc4)C(C)=C1C3(C)C)[C@]1(OC(C)=O)CO[C@@H]1C[C@@H]2O` [Paclitaxel nanoparticles lot used in formulas listed in Tabl] [listing 1 of 2 here], in series [3], the “Particle size, Mean” value is given as 0.861 μm; the “Particle size, Median” value amounted to 0.710 μm; the “Particle size, Mode” value amounted to 0.572 μm. In addition, the “Bulk density (not-tapped)” value in series [4] is 0.05 g/mL. In addition, the “Specific surface area (SSA)” value in series [5] stood at 41.24 m^2/g.

For the compound `CC(=O)O[C@H]1C(=O)[C@@]2(C)[C@H]([C@H](OC(=O)c3ccccc3)[C@]3(O)C[C@H](OC(=O)[C@H](O)[C@@H](NC(=O)c4ccccc4)c4ccccc4)C(C)=C1C3(C)C)[C@]1(OC(C)=O)CO[C@@H]1C[C@@H]2O` [Paclitaxel nanoparticles lot used in formulas listed in Tabl] [listing 2 of 2 here], the “Particle size, Mean” value in series [3] is on record as 0.83 μm. Besides, the “Bulk density (not-tapped)” value in series [4] is 0.09 g/mL. Besides, the “Specific surface area (SSA)” value in series [5] is on record as 26.72 m^2/g.

Take `CC(=O)O[C@@]12CO[C@@H]1C[C@H](O)[C@@]1(C)C(=O)[C@H](O)C3=C(C)[C@@H](OC(=O)[C@H](O)[C@@H](NC(=O)OC(C)(C)C)c4ccccc4)C[C@@](O)([C@@H](OC(=O)c4ccccc4)[C@H]21)C3(C)C` [docetaxel nanoparticles produced by milling] [reference compound]: the “Dissolution rate, % dissolved in 30 minutes” value in series [2] (listed as docetaxel nanoparticles made by milling) is on record as 9%.
